Source: patent publication US20050107303A1, “Health feed” (priority 2001, published 2005)

Test system: immunoglobulin A
Experiment: IgA production by mid colon biopsy samples of cats fed the diets, measured by ELISA
Type: in vivo, cat
Description: The study was carried out using eight members of the cat colonic health panel, which were known to be in good (intestinal) health. Cats were wormed and vaccinated 6 months prior to the start of the trial. The cats underwent the following trial regime; [table] Both the control diet and the glutamine enriched diet provided 405 kCal/100 g. The control diet was a dry diet containing approximately 4% water. The control diet comprised the following ingredients (˜is approximately): The glutamine-supplemented diet comprised 1% dry weight by weight glutamine provided as L-glutamine. The glutamine was sprayed onto the external surface of the dry control product. Levels of immunoglobulin A production by mid colon biopsy samples were measured by enzyme linked immunosorbent assay (ELISA). IgA ELISA test was obtained from Bethyl and performed as described in provided protocol sheets. In short, 96 well microplates were taken and coated with 100 μl anti-canine IgA overnight at 4° C. After each step the plates were washed with ELISA wash (50 Mm) Tris, pH 8.0, 0.1M NaCl, 0.05% Tween 20). Unreacted sites were blocked with tris-buffered saline (TBS) containing 1% bovine serum albumin (BSA) for 30 minutes. […] Finally, the absorbence was read spectrophotometrically at 450 nm using an ELISA plate reader.

NC(=O)CC[C@H](N)C(=O)O [Glutamine, L-glutamine]
IgA production by the colon, compared to the other diets (cats fed diets containing 1% glutamine, samples taken from below the transwell, P=0.048, GLM): significant increase | IgA production (ng/mg protein) Intestinal Sample (healthy cats, diet with 1% dry w/w L-glutamine for 28 days, mid colon biopsy samples, letters (a)/(b) mark a significant difference): 1003.1 ± 762.9 (b) ng/mg protein
